Measured values reported in patent US6521654B2, “Substituted imidazolidine derivatives, their preparation, their use and pharmaceutical preparations including them” (Aventis Pharma Deutschland GmbH, priority 1997, dated 2003).

Target: T1, interaction between VCAM-1 and VLA-4 (Homo sapiens, UniProt P05556+P13612)
T1 construct: supplied in their natural form as surface molecules on human U937 cells; host or cells: U937 cells carry endogenous VLA-4; The partner hVCAM-1(1-3)-IgG was made in house in transfected COS cells (ATCC CRL1651) and used as culture supernatant
Experiment: U937/VCAM-1 cell adhesion test (adhesion of U937 cells to hVCAM-1(1-3)-IgG)
Format: cell-based
Conditions: concentration leading to 50% inhibition of adhesion of human U937 cells (ATCC CRL 1593) to hVCAM-1(1-3)-IgG
Excerpt: The test method used for the activity of the compounds of the formula I on the interaction between VCAM-1 and VLA-4 is the assay described below which is specific for this interaction. The cellular binding components, i.e., the VLA-4 integrins, are supplied in their natural form as surface molecules on human U937 cells (ATCC CRL 1593). which belong to the leucocytes group. The specific binding components used are genetically engineered recombinant soluble fusion proteins, consisting of the extracytoplasmatic domain of human VCAM-1 and the constant region of a human immunoglobulin of the subclass IgG1.
Assay for the Measurement of the Adhesion of U937 Cells (ATCC CRL 1593) to hVCAM-1(1-3)-IgG
1. Preparation of Human VCAM-1 (1-3)-IgG and Human CD4-IgG
A genetic construct for the expression of the extracellular domain of human VCAM-1, associated with the genetic sequence of the heavy chain of human immunoglobulin IgG1 (hinge, CH2 and CH3 regions), from Dr. Brian Seed, Massachusetts General Hospital. Boston, USA was employed (cf. Damle and Aruffo, Proc. Natl. Acad. Sci. USA 1991, 88, 6403-6407). The soluble fusion protein hVCAM-1(1-3)-IgG contained the three amino-terminal extracellular immunoglobulin-like domains of human VCAM-1 (Damle and Aruffo, Proc. Natl. Acad. Sci. USA 1991, 88, 6403-6407). CD4-IgG (Zettimeissl et al., DNA and Cell Biology 1990, 9, 347) served as a fusion protein for negative controls. The recombinant proteins were expressed as soluble proteins after DEAE/dextran-mediated DNA transfection in COS cells (ATCC CRL1651) according to standard procedures (Ausubel et al., Current Protocols in Molecular Biology, John Wiley & Sons, Inc., 1994).
2. Assay for the Measurement of the Adhesion of U937 Cells to hVCAM-1 (1-3)-IgG
2.1 96-well microtiter test plates (Nunc Maxisorb) were incubated at room temperature for 1 hour with 100 μl/well of a goat-anti-human IgG antibody solution (10 μg/ml in 50 mM tris, pH 9.5). After removal of the antibody solution, washing was carried out once with PBS.
2.2 150 μl/well of a blocking buffer (1% BSA in PBS) were incubated on the plates at room temperature for 0.5 hour. After removal of the blocking buffer, washing was carried out once with PBS.
2.3 100 μl per well of a cell culture supernatant of transfected COS cells were incubated on the plates at room temperature for 1.5 hours. The COS cells were transfected with a plasmid which codes for the three N-terminal immunoglobulin-like domains of VCAM-1, coupled to the Fc part of human IgG1 (hVCAM-1 (1-3)-IgG). The content of hVCAM-1 (1-3)-IgG was about 0.5-1 μg/ml. After removal of the culture supernatant, washing was carried out once with PBS.
2.4 The plates were incubated at room temperature for 20 minutes with 100 μl/well of Fc receptor blocking buffer (1 mg/ml of γ-globulin, 100 mM NaCl, 100 μM MgCl2, 100 μM MnCl2, 100 μM CaCl2, 1 mg/ml of BSA in 50 mM HEPES, pH 7.5). After removal of the Fc receptor blocking buffer, washing was carried out once with PBS.
2.5 20 μl of binding buffer (100 mM NaCl, 100 μM MgCl2, 100 μM MnCl2, 100 μM CaCl2, 1 mg/ml of BSA in 50 mM HEPES, pH 7.5) were initially introduced, and the substances to be tested were added in 10 μl of binding buffer and incubated for 20 minutes. The controls used were antibodies against VCAM-1 (BBT, No. BBA6) and against VLA-4 (immunotech, No. 0764).
2.6 U937 cells were incubated in Fc receptor blocking buffer for 20 minutes and then added by pipette in a concentration of 1×10^6/ml and in an amount of 100 μl per well ([…]).
2.7 The plates were slowly immersed at an angle of 45° in stop buffer (100 mM NaCl, 100 μM MgCl2, 100 μM MnCl2, 100 μM CaCl2 in 25 mM tris, pH 7.5) and shaken off. The process was repeated.
2.8 50 μl/well of a dye solution (16.7 μg/ml of Hoechst Dye 33258, 4% formaldehyde, 0.5% triton X-100 in PBS) were then incubated on the plates for 15 minutes. […]

T1 sequence (P13612 34-1032): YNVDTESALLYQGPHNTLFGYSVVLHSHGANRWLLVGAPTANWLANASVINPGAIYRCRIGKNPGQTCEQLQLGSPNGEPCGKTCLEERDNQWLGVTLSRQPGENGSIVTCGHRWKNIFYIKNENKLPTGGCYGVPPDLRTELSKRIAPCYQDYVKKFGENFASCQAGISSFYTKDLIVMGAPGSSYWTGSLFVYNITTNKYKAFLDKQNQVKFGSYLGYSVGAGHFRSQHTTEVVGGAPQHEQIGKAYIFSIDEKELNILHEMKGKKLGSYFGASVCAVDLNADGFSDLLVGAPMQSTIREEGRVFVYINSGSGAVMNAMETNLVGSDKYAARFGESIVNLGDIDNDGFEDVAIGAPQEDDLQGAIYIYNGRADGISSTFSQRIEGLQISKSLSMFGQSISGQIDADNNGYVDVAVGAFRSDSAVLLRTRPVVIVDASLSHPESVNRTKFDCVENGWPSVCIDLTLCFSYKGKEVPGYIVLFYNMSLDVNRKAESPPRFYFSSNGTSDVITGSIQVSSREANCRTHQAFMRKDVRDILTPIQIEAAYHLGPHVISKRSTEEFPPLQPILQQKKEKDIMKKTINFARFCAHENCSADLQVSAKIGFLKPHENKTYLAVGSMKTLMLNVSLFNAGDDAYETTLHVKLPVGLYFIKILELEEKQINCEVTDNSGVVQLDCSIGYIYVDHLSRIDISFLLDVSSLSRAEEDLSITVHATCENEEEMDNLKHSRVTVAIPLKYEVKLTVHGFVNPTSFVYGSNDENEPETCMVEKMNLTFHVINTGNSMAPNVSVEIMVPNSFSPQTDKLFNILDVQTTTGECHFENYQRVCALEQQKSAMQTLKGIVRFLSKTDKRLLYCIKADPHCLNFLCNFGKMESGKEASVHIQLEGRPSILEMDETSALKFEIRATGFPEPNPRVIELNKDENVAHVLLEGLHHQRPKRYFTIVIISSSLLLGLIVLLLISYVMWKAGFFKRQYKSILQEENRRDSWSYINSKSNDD
T1 sequence (P05556 21-798): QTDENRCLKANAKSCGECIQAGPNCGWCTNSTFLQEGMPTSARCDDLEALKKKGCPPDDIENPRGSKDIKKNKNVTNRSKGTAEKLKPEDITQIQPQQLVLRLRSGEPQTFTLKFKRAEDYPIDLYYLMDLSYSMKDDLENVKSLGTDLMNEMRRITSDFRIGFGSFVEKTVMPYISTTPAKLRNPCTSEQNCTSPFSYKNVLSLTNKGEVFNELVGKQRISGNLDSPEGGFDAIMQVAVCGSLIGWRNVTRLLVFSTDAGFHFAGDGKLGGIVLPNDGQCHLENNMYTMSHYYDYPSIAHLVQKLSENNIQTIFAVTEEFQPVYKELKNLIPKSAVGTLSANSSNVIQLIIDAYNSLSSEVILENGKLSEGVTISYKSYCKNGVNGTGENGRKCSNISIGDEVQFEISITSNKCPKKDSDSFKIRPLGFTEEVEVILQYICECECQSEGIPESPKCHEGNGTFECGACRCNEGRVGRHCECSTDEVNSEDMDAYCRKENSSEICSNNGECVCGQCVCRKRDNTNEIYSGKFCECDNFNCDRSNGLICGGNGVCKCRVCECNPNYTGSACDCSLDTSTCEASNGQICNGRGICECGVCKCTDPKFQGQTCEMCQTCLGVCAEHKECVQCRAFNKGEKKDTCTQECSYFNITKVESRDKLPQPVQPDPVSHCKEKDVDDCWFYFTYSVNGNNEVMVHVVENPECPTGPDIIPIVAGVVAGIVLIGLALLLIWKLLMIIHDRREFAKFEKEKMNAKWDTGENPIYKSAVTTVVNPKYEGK

SMILES	IC50
CC(C)C[C@@H](C(=O)N[C@@H](CC(=O)O)C(=O)N[C@H](C(=O)O)c1ccccc1)N1C(=O)N(Cc2ccc(NC(=O)Nc3ccccc3Cl)cc2)C(C)(C)C1=O [Example 62]	5 nM
CC(C)C[C@@H](C(=O)N[C@@H](CC(=O)O)C(=O)N[C@H](C(=O)O)c1ccccc1)N1C(=O)N(Cc2ccc(NC(=O)Nc3ccccc3F)cc2)C(C)(C)C1=O [Example 67]	2.3 nM
CC(C)C[C@@H](C(=O)N[C@@H](CC(=O)O)C(=O)N[C@H](C(=O)O)c1ccccc1)N1C(=O)N(Cc2ccc(NC(=O)Nc3ccccc3C(F)(F)F)cc2)C(C)(C)C1=O [Example 68]	300 nM
Cc1ccccc1NC(=O)Nc1ccc(CN2C(=O)N([C@@H](C)C(=O)N[C@H](C)CC(=O)O)C(=O)C2(C)C)cc1 [Example 90, (R)-3-((S)-2-(4,4-Dimethyl-3-(4-(3-(2-methylphenyl)ureido)benzyl)-2,5-dioxoimidazolidin-1-yl)-2-methyl-acetylamino)-3-methylpropionic Acid]	82 nM
Cc1ccccc1NC(=O)Nc1ccc(CN2C(=O)N(CC(=O)NC(C)(C)CC(=O)O)C(=O)C2(C)C)cc1 [Example 91, 3-(2-(4,4-Dimethyl-3-(4-(3-(2-methylphenyl)ureido)benzyl)-2,5-dioxoimidazolidin-1-yl)acetylamino)-3,3-dimethylpropionic Acid]	210 nM
C[C@H](CC(=O)O)NC(=O)[C@H](CC1CC1)N1C(=O)N(Cc2ccc(NC(=O)Nc3ccccc3)cc2)C(C)(C)C1=O [Example 92, (R)-3-((S)-2-(4,4-Dimethyl-3-(4-(3-phenylureido)benzyl)-2,5-dioxoimidazolidin-1-yl)-2-cyclopropylmethylacetylamino)-3-methylpropionic Acid]	40 nM
Cc1ccccc1NC(=O)Nc1ccc(CN2C(=O)N(CC(=O)N[C@@H](CC(=O)O)c3ccc4c(c3)OCO4)C(=O)C2(C)C)cc1 [Example 93, (S)-3-(2-(4,4-Dimethyl-3-(4-(3-(2-methylphenyl)ureido)benzyl)-2,5-dioxoimidazolidin-1-yl)acetylamino)-3-(3,4-methylenedioxyphenyl)propionic Acid]	7 nM
Cc1ccccc1NC(=O)Nc1ccc(CN2C(=O)N(CC(=O)NC[C@H](NC(=O)OCc3ccccc3)C(=O)O)C(=O)C2(C)C)cc1 [Example 94]	22 nM
Cc1ccccc1NC(=O)Nc1ccc(CN2C(=O)N([C@@H](CC(C)C)C(=O)N[C@@H](CC(=O)O)C(=O)N[C@H](C(=O)N3CCC[C@H]3C(=O)O)C(C)C)C(=O)C2(C)C)cc1 [Example 133, ((S)-2-(4,4-Dimethyl-3-(4-(3-(2-methylphenyl)ureido)benzyl)-2,5-dioxoimidazolidin-1-yl)-2-(2-methylpropyl)acetyl)-L-aspartyl-L-valyl-L-proline]	1.5 nM
Cc1ccccc1NC(=O)Nc1ccc(CN2C(=O)N([C@@H](CC(C)C)C(=O)N[C@@H](CC(=O)O)c3ccc4ccccc4c3)C(=O)C2(C)C)cc1 [Example 184]	4 nM
Cc1ccccc1NC(=O)Nc1ccc(CN2C(=O)N([C@@H](CC(C)C)C(=O)N[C@@H](CC(=O)O)c3ccc(-c4ccccc4)cc3)C(=O)C2(C)C)cc1 [Example 185]	11 nM
Cc1ccccc1NC(=O)Nc1ccc(CN2C(=O)N([C@@H](CC(C)C)C(=O)N[C@@H](CC(=O)O)c3cccc4ccccc34)C(=O)C2(C)C)cc1 [Example 186]	2.9 nM
Cc1ccccc1NC(=O)Nc1ccc(CN2C(=O)N([C@@H](CC(C)C)C(=O)N[C@@H](CC(=O)O)c3c(F)c(F)c(F)c(F)c3F)C(=O)C2(C)C)cc1 [Example 187]	25 nM
COc1ccc([C@H](CC(=O)O)NC(=O)[C@H](CC(C)C)N2C(=O)N(Cc3ccc(NC(=O)Nc4ccccc4C)cc3)C(C)(C)C2=O)c(OC)c1 [Example 188]	1.6 nM
COc1ccc(C(CC(=O)O)NC(=O)C(CC(C)C)N2C(=O)N(Cc3ccc(NC(=O)Nc4ccccc4C)cc3)C(C)(c3ccccc3)C2=O)cc1OC (centres unmarked) [Example 190]	8 nM
Cc1ccccc1NC(=O)Nc1ccc(CN2C(=O)N(C(CC(C)C)C(=O)NC(CC(=O)O)c3ccc(C(C)(C)C)cc3)C(=O)C2(C)c2ccccc2)cc1 (centres unmarked) [Example 191]	122 nM
Cc1ccccc1NC(=O)Nc1ccc(CN2C(=O)N(C(CC(C)C)C(=O)NC(CC(=O)O)c3ccc(F)cc3)C(=O)C2(C)c2ccccc2)cc1 (centres unmarked) [Example 192]	50 nM
COc1ccc(C(CC(=O)O)NC(=O)C(CC(C)C)N2C(=O)N(Cc3ccc(NC(=O)Nc4ccccc4C)cc3)C(C)(c3ccccc3)C2=O)cc1 (centres unmarked) [Example 193]	15 nM
Cc1ccccc1NC(=O)Nc1ccc(CN2C(=O)N(C(CC(C)C)C(=O)NC(CC(=O)O)c3ccc(CC(C)C)cc3)C(=O)C2(C)c2ccccc2)cc1 (centres unmarked) [Example 194]	450 nM
COc1cccc(C(CC(=O)O)NC(=O)C(CC(C)C)N2C(=O)N(Cc3ccc(NC(=O)Nc4ccccc4C)cc3)C(C)(c3ccccc3)C2=O)c1OC (centres unmarked) [Example 201]	25 nM
Cc1ccccc1NC(=O)Nc1ccc(CN2C(=O)N(C(CC(C)C)C(=O)NC(CC(=O)O)c3c(F)cccc3F)C(=O)C2(C)c2ccccc2)cc1 (centres unmarked) [Example 205]	95 nM
Cc1ccccc1NC(=O)Nc1ccc(CN2C(=O)N(C(CC(C)C)C(=O)NC(CC(=O)O)c3ccccc3F)C(=O)C2(C)c2ccccc2)cc1 (centres unmarked) [Example 214]	17 nM
Cc1ccccc1NC(=O)Nc1ccc(CN2C(=O)N(C(CC(C)C)C(=O)NC(CC(=O)O)c3ccc(F)cc3)C(=O)C2(C)c2ccccc2)cc1 (centres unmarked) [Example 216]	50 nM
